# Experimental data: PubChem BioAssay AID1963865 (Molecular Pharmacology Branch, DTP, NCI, 2024)
# Where “and” joins values, the source holds several entries; their conditions need not be identical. Equal entries are not always repeated.
# Tested on: KRAS PDC multicell spheroid viability
# Experiment: Anticancer human tumor 825966-067-R-J1-PDC patient-derived colon carcinoma cell line growth inhibition [KRAS2]
# Conditions: for viability, T/C: stronger effect = lower value
# How it was run: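 KRAS-mutant tumor cells were grown as spheroids with HUVEC endothelial cells and human MSCs as stroma. Targeted agents were tested alone and with KRAS pathway inhibitors. Doses started at or near clinical Cmax, or 10 microM, descending half-log.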
# [1] = curve of first compound, second compound 0.1 µM
# [2] = curve of first compound, second compound 0.316 µM
# [3] = curve of first compound, second compound 1 µM
# [4] = curve of first compound, second compound 3.16 µM
# [5] = second compound 0.1 µM, first compound 0.00316 µM
# [6] = second compound 0.1 µM, first compound 0.01 µM
# [7] = second compound 0.1 µM, first compound 0.0316 µM
# [8] = second compound 0.1 µM, first compound 0.1 µM
# [9] = second compound 0.1 µM, first compound 0.316 µM
# [10] = second compound 0.1 µM, first compound 1 µM
# [11] = second compound 0.316 µM, first compound 0.00316 µM
# [12] = second compound 0.316 µM, first compound 0.01 µM
# [13] = second compound 0.316 µM, first compound 0.0316 µM
# [14] = second compound 0.316 µM, first compound 0.1 µM
# [15] = second compound 0.316 µM, first compound 0.316 µM
# [16] = second compound 0.316 µM, first compound 1 µM
# [17] = second compound 1 µM, first compound 0.00316 µM
# [18] = second compound 1 µM, first compound 0.01 µM
# [19] = second compound 1 µM, first compound 0.0316 µM
# [20] = second compound 1 µM, first compound 0.1 µM
# [21] = second compound 1 µM, first compound 0.316 µM
# [22] = second compound 1 µM, first compound 1 µM
# [23] = second compound 3.16 µM, first compound 0.00316 µM
# [24] = second compound 3.16 µM, first compound 0.01 µM
# [25] = second compound 3.16 µM, first compound 0.0316 µM
# [26] = second compound 3.16 µM, first compound 0.1 µM
# [27] = second compound 3.16 µM, first compound 0.316 µM
# [28] = second compound 3.16 µM, first compound 1 µM
# [29] = curve of first compound, second compound 10 µM
# [30] = second compound 0.1 µM, first compound 0.000316 µM
# [31] = second compound 0.1 µM, first compound 0.001 µM
# [32] = second compound 0.316 µM, first compound 0.000316 µM
# [33] = second compound 0.316 µM, first compound 0.001 µM
# [34] = second compound 1 µM, first compound 0.000316 µM
# [35] = second compound 1 µM, first compound 0.001 µM
# [36] = second compound 3.16 µM, first compound 0.000316 µM
# [37] = second compound 3.16 µM, first compound 0.001 µM
# [38] = second compound 10 µM, first compound 0.000316 µM
# [39] = second compound 10 µM, first compound 0.001 µM
# [40] = second compound 10 µM, first compound 0.00316 µM
# [41] = second compound 10 µM, first compound 0.01 µM
# [42] = second compound 10 µM, first compound 0.0316 µM
# [43] = second compound 10 µM, first compound 0.1 µM
# 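Note: spheroids exposed to compounds for 7 days.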
# 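Throughout, for viability, T/C: 100% = DMSO vehicle control viability.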
SMILES,IC50 [1] [nM],IC50 [2] [nM],IC50 [3] [nM],IC50 [4] [nM],"viability, T/C [5] [%]","viability, T/C [6] [%]","viability, T/C [7] [%]","viability, T/C [8] [%]","viability, T/C [11] [%]","viability, T/C [12] [%]","viability, T/C [13] [%]","viability, T/C [14] [%]","viability, T/C [17] [%]","viability, T/C [18] [%]","viability, T/C [19] [%]","viability, T/C [20] [%]","viability, T/C [23] [%]","viability, T/C [24] [%]","viability, T/C [25] [%]","viability, T/C [26] [%]",further results
COc1cc2nc(C)nc(NC(C)c3cc(N)cc(C(F)(F)F)c3)c2cc1OC1CCOC1 (configuration not stated),,,,,,,,,,,,,,,,,,,,,"IC50 (compound alone, run of 08/26/2021): 5.81 µM [middle of 5 runs]; IC50 (compound alone, run of 09/02/2021): > 10000 nM and 7540 nM"
CCN1CCN(Cc2ccc(Nc3ncc(F)c(-c4cc(F)c5nc(C)n(C(C)C)c5c4)n3)nc2)CC1 + C=CC(=O)N1CCN(c2nc(OCC3CCCN3C)nc3c2CCN(c2cccc4cccc(C)c24)C3)CC1CC#N,> 1000,> 1000,> 1000,397,97.1,114,108,165,103,105,119,86.5,95.7,110,102,166,83.7,114,133,125,"IC50 (curve of first compound, second compound 0.0316 µM): > 1000 nM; viability, T/C (second compound 0.0316 µM, first compound 0.00316 µM): 93.5%; viability, T/C (second compound 0.0316 µM, first compound 0.01 µM): 112%; viability, T/C (second compound 0.0316 µM, first compound 0.0316 µM): 91%; viability, T/C (second compound 0.0316 µM, first compound 0.1 µM): 113%; viability, T/C (second compound 0.0316 µM, first compound 0.316 µM): 158%; viability, T/C (second compound 0.0316 µM, first compound 1 µM): 153%; viability, T/C [9]: 198%; viability, T/C [10]: 123%; viability, T/C [15]: 160%; viability, T/C [16]: 115%; viability, T/C [21]: 167%; viability, T/C [22]: 112%; viability, T/C [27]: 61.6%; viability, T/C [28]: 2.39%"
CC(=O)Nc1cccc(-n2c(=O)n(C3CC3)c(=O)c3c(Nc4ccc(I)cc4F)n(C)c(=O)c(C)c32)c1 + COc1cc2nc(C)nc(NC(C)c3cc(N)cc(C(F)(F)F)c3)c2cc1OC1CCOC1,> 31.6,29.6,18.5,3.25,128,64,84.8,,110,94.2,47.3,,114,72.3,30.6,,50.9,18.8,5.41,,"IC50 [29]: < 0.1 nM; viability, T/C (second compound 0.1 µM, first compound 0.0001 µM): 95.3%; viability, T/C [30]: 114%; viability, T/C [31]: 144%; viability, T/C (second compound 0.316 µM, first compound 0.0001 µM): 95%; viability, T/C [32]: 126%; viability, T/C [33]: 128%; viability, T/C (second compound 1 µM, first compound 0.0001 µM): 98.5%; viability, T/C [34]: 103%; viability, T/C [35]: 113%; viability, T/C (second compound 3.16 µM, first compound 0.0001 µM): 109%; viability, T/C [36]: 109%; viability, T/C [37]: 128%; viability, T/C (second compound 10 µM, first compound 0.0001 µM): 2.53%; viability, T/C [38]: 2.62%; viability, T/C [39]: 0.97%; viability, T/C [40]: 0.39%; viability, T/C [41]: 0.39%; viability, T/C [42]: 0.27%"
CC(C)n1nc(-c2ccc3oc(N)nc3c2)c2c(N)ncnc21 + CC1OCC2(CCN(c3cnc(Sc4ccnc(N)c4Cl)c(N)n3)CC2)C1N,> 100,> 100,> 100,> 100,133,162,132,138,133,166,132,109,162,170,140,84.8,140,123,127,81.2,"IC50 [29]: < 0.316 nM; viability, T/C [30]: 89.9%; viability, T/C [31]: 93.2%; viability, T/C [32]: 101%; viability, T/C [33]: 115%; viability, T/C [34]: 115%; viability, T/C [35]: 111%; viability, T/C [36]: 125%; viability, T/C [37]: 129%; viability, T/C [38]: 30.2%; viability, T/C [39]: 62.6%; viability, T/C [40]: 32.7%; viability, T/C [41]: 30.8%; viability, T/C [42]: 61.5%; viability, T/C [43]: 24.8%"
CC(=O)OC12COC1CC(O)C1(C)C(=O)C(O)C3=C(C)C(OC(=O)C(O)C(NC(=O)OC(C)(C)C)c4ccccc4)CC(O)(C(OC(=O)c4ccccc4)C21)C3(C)C (configuration not stated) + C=CC(=O)N1CCN(c2nc(=O)n(-c3c(C)ccnc3C(C)C)c3nc(-c4c(O)cccc4F)c(F)cc23)C(C)C1,< 10,< 10,< 10,< 10,,33.9,30.6,20.5,,26.8,24,24.6,,27.9,34.3,25.9,,38.3,27.3,25.5,"IC50 [29]: < 10 nM; viability, T/C [9]: 20.9%; viability, T/C [10]: 22.8%; viability, T/C (second compound 0.1 µM, first compound 3.16 µM): 31.5%; viability, T/C [15]: 26%; viability, T/C [16]: 28.5%; viability, T/C (second compound 0.316 µM, first compound 3.16 µM): 29.7%; viability, T/C [21]: 23.9%; viability, T/C [22]: 23.1%; viability, T/C (second compound 1 µM, first compound 3.16 µM): 22.5%; viability, T/C [27]: 23.2%; viability, T/C [28]: 26.9%; viability, T/C (second compound 3.16 µM, first compound 3.16 µM): 39.2%; viability, T/C [41]: 30.8%; viability, T/C [42]: 34.9%; viability, T/C [43]: 24.1%; viability, T/C (second compound 10 µM, first compound 0.316 µM): 26.7%; viability, T/C (second compound 10 µM, first compound 1 µM): 17.1%; viability, T/C (second compound 10 µM, first compound 3.16 µM): 24.5%"
Cn1ncnc1[C@H]1c2n[nH]c(=O)c3cc(F)cc(c23)N[C@@H]1c1ccc(F)cc1 + C=CC(=O)N1CCN(c2nc(=O)n(-c3c(C)ccnc3C(C)C)c3nc(-c4c(O)cccc4F)c(F)cc23)C(C)C1,> 100,> 100,> 100,> 100,98.2,89.6,90.1,82.3,143,103,90.7,72.3,75.2,79.3,102,80.6,101,98.3,72,87.7,"IC50 [29]: > 100 nM; viability, T/C [30]: 132%; viability, T/C [31]: 100%; viability, T/C [32]: 100%; viability, T/C [33]: 99.9%; viability, T/C [34]: 100%; viability, T/C [35]: 91.7%; viability, T/C [36]: 109%; viability, T/C [37]: 102%; viability, T/C [38]: 92.4%; viability, T/C [39]: 124%; viability, T/C [40]: 93.2%; viability, T/C [41]: 111%; viability, T/C [42]: 115%; viability, T/C [43]: 76.9%"
CN(C)C/C=C/C(=O)Nc1cc2c(Nc3ccc(F)c(Cl)c3)ncnc2cc1O[C@H]1CCOC1 + CNCc1ccccc1-c1csc(C(C)Nc2nc(C)nc3cc(OC)c(OC)cc23)c1,> 100,> 100,> 100,> 100,98,113,88.8,106,107,105,99.3,92.4,89.5,107,108,106,107,1.05,130,104,"IC50 [29]: < 0.316 nM; viability, T/C [30]: 103%; viability, T/C [31]: 92.3%; viability, T/C [32]: 123%; viability, T/C [33]: 108%; viability, T/C [34]: 110%; viability, T/C [35]: 101%; viability, T/C [36]: 128%; viability, T/C [37]: 113%; viability, T/C [38]: 1.54%; viability, T/C [39]: 0.37%; viability, T/C [40]: 0.43%; viability, T/C [41]: 1.89%; viability, T/C [42]: 1.87%; viability, T/C [43]: 2.49%"
